# From patent US9302999B2, “Substituted triazoles as herbicides” (E. I. DU PONT DE NEMOURS AND COMPANY, priority 2012, dated 2016)
# Legend:
# Type in all cases: in vivo
# corn (Zea mays) = assay: Test C pre-/postemergence: corn
# Outline: (§1)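 Visual injury scored 0–100 (100 = complete control) against untreated controls after 13–15 greenhouse days. Surfactant-containing solvent formulations applied either to soil after sowing (loam/sand) or over 1- to 4-leaf plants, 2–18 cm tall.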
# wild oat (Avena fatua) = assay: Test C pre-/postemergence: wild oat
# Outline: as §1
# [1] = system: winter wheat (Triticum aestivum); assay: Test C pre-/postemergence: winter wheat
# Outline: as §1
# [2] = system: ragweed (common ragweed, Ambrosia elation); assay: Test C pre-/postemergence: ragweed
# Outline: as §1
# soybean (Glycine max) = assay: Test C pre-/postemergence: soybean
# Outline: as §1
# [3] = system: crabgrass, large (large crabgrass, Digitaria sanguinalis); assay: Test A pre-/postemergence: crabgrass, large
# Outline: (§2)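 Injury was scored visually on a 0 (no effect) to 100 (complete control) scale versus untreated controls roughly ten days after treatment in the greenhouse. Compounds, formulated in surfactant-containing non-phytotoxic solvent, went on as soil-directed preemergence spray or postemergence to one- to two-leaf plants 2–10 cm tall.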
# [4] = system: foxtail, giant (giant foxtail, Setaria faberii); assay: Test A pre-/postemergence: foxtail, giant
# Outline: as §2
# [5] = system: barnyardgrass (Echinochloa crus-galli); assay: Test A pre-/postemergence: barnyardgrass
# Outline: as §2
# [6] = system: blackgrass (Alopecurus myosuroides); assay: Test C pre-/postemergence: blackgrass
# Outline: as §1
# [7] = system: nutsedge, yellow (yellow nutsedge, Cyperus esculentus); assay: Test C pre-/postemergence: nutsedge, yellow
# Outline: as §1
# [8] = system: large crabgrass (Digitaria sanguinalis); assay: Test C pre-/postemergence: large crabgrass
# Outline: as §1
# [9] = system: johnsongrass (Sorghum halepense); assay: Test C pre-/postemergence: johnsongrass
# Outline: as §1
# [10] = Postemergence, 31 g ai/ha, scale 0 to 100 (0 no effect, 100 complete control)
# [11] = Postemergence, 62 g ai/ha, scale 0 to 100 (0 no effect, 100 complete control)
# [12] = Postemergence, 250 g ai/ha, scale 0 to 100
# [13] = Preemergence, 31 g ai/ha, scale 0 (no effect) to 100 (complete control)
# [14] = Preemergence, 62 g ai/ha, scale of 0 to 100, 0 is no effect, 100 is complete control
# [15] = Preemergence, 125 g ai/ha, scale 0 to 100, 0 no effect, 100 complete control
# [16] = Preemergence, 250 g ai/ha, scale 0 to 100, 0 no effect, 100 complete control
# [17] = Postemergence, 125 g ai/ha, scale 0 to 100, 0 no effect, 100 complete control
# [18] = Postemergence, 250 g ai/ha, scale 0 to 100 (0 no effect, 100 complete control)
# [19] = Postemergence, 125 g ai/ha, 0 to 100 scale, 0 is no effect, 100 is complete control
# [20] = Postemergence, 500 g ai/ha, 0 to 100 scale, 0 is no effect, 100 is complete control
# [21] = Preemergence, 125 g ai/ha, 0 to 100 scale where 0 is no effect and 100 is complete control
# [22] = Preemergence, 500 g ai/ha, 0 to 100 scale (0 no effect, 100 complete control)
structure (smiles),measurement,setting,value
CCOc1nn(-c2ccc(F)cc2)nc1Cc1ccnc(C(F)F)c1 [Compound 195],"Plant response rating, Corn",corn (Zea mays); [10],60
same,"Plant response rating, Corn",corn (Zea mays); [11],75
same,"Plant response rating, Corn",corn (Zea mays); [12],80
same,"Plant response rating, Corn",corn (Zea mays); [13],0
same,"Plant response rating, Corn",corn (Zea mays); [14],5
same,"Plant response rating, Corn",corn (Zea mays); [15],15
same,"Plant response rating, Corn",corn (Zea mays); [16],35
same,"Plant response rating, Oat, Wild",wild oat (Avena fatua); [10],60
same,"Plant response rating, Oat, Wild",wild oat (Avena fatua); [11],75
same,"Plant response rating, Oat, Wild",wild oat (Avena fatua); [17],80
same,"Plant response rating, Oat, Wild",wild oat (Avena fatua); [18],85
same,"Plant response rating, Oat, Wild",wild oat (Avena fatua); [13],80
same,"Plant response rating, Oat, Wild",wild oat (Avena fatua); [14],90
same,"Plant response rating, Oat, Wild",wild oat (Avena fatua); [16],90
same,"Plant response rating, Wheat",[1]; [10],10
same,"Plant response rating, Wheat",[1]; [11],20
same,"Plant response rating, Wheat",[1]; [17],25
same,"Plant response rating, Wheat",[1]; [18],30
same,"Plant response rating, Wheat",[1]; [13],0
same,"Plant response rating, Wheat",[1]; [14],5
same,"Plant response rating, Wheat",[1]; [15],5
same,"Plant response rating, Wheat",[1]; [16],30
same,"Plant response rating, Ragweed",[2]; [11],50
same,"Plant response rating, Ragweed",[2]; [17],70
same,"Plant response rating, Ragweed",[2]; [18],85
same,"Plant response rating, Ragweed",[2]; [13],15
same,"Plant response rating, Ragweed",[2]; [14],20
same,"Plant response rating, Ragweed",[2]; [15],20
same,"Plant response rating, Ragweed",[2]; [16],55
same,"Plant response rating, Soybean",soybean (Glycine max); [10],40
same,"Plant response rating, Soybean",soybean (Glycine max); [11],40
same,"Plant response rating, Soybean",soybean (Glycine max); [17],65
same,"Plant response rating, Soybean",soybean (Glycine max); [18],65
same,"Plant response rating, Soybean",soybean (Glycine max); [13],0
same,"Plant response rating, Soybean",soybean (Glycine max); [14],0
same,"Plant response rating, Soybean",soybean (Glycine max); [15],0
same,"Plant response rating, Soybean",soybean (Glycine max); [16],25
same,"Plant response rating, Crabgrass, Large",[3]; [19],90
same,"Crabgrass, Large plant response rating",[3]; [20],90
same,"Plant response rating, Crabgrass, Large",[3]; [21],100
same,"Plant response rating, Crabgrass, Large",[3]; [22],100
same,"Plant response rating, Foxtail, Giant",[4]; [19],90
same,"Foxtail, Giant plant response rating",[4]; [20],90
same,"Plant response rating, Foxtail, Giant",[4]; [21],100
same,"Plant response rating, Foxtail, Giant",[4]; [22],100
same,"Plant response rating, Barnyardgrass",[5]; [19],90
same,Barnyardgrass plant response rating,[5]; [20],90
same,"Plant response rating, Barnyardgrass",[5]; [21],90
same,"Plant response rating, Barnyardgrass",[5]; [22],100
same,"Plant response rating, Blackgrass",[6]; [10],45
same,"Plant response rating, Blackgrass",[6]; [11],70
same,"Plant response rating, Blackgrass",[6]; [17],80
same,"Plant response rating, Blackgrass",[6]; [12],80
same,"Plant response rating, Blackgrass",[6]; [13],90
same,"Plant response rating, Blackgrass",[6]; [14],90
same,"Plant response rating, Blackgrass",[6]; [15],90
same,"Plant response rating, Blackgrass",[6]; [16],90
same,"Plant response rating, Nutsedge, Yellow",[7]; [10],10
same,"Plant response rating, Nutsedge, Yellow",[7]; [11],20
same,"Plant response rating, Nutsedge, Yellow",[7]; [17],25
same,"Plant response rating, Nutsedge, Yellow",[7]; [18],25
same,"Plant response rating, Nutsedge, Yellow",[7]; [13],0
same,"Plant response rating, Nutsedge, Yellow",[7]; [14],0
same,"Plant response rating, Nutsedge, Yellow",[7]; [15],5
same,"Plant response rating, Nutsedge, Yellow",[7]; [16],80
same,"Plant response rating, Crabgrass, Large",[8]; [10],55
same,"Plant response rating, Crabgrass, Large",[8]; [11],60
same,"Plant response rating, Crabgrass, Large",[8]; [17],90
same,"Plant response rating, Crabgrass, Large",[8]; [12],95
same,"Plant response rating, Crabgrass, Large",[8]; [13],98
same,"Plant response rating, Crabgrass, Large",[8]; [14],100
same,"Plant response rating, Crabgrass, Large",[8]; [15],100
same,"Plant response rating, Crabgrass, Large",[8]; [16],100
same,"Plant response rating, Johnsongrass",[9]; [10],55
same,"Plant response rating, Johnsongrass",[9]; [11],80
same,"Plant response rating, Johnsongrass",[9]; [17],95
same,"Plant response rating, Johnsongrass",[9]; [18],95
same,"Plant response rating, Johnsongrass",[9]; [15],98
same,"Plant response rating, Johnsongrass",[9]; [16],100
